In ChEMBL document CHEMBL4840352 (J Med Chem, 2021) one finds Activity, inhibition and IC50 data, which are given here for two compounds.

Active and inactive are the calls of the source. The calls are words filed in the database; no cut-off is given here.

Assay [1] has as its system Receptor-type tyrosine-protein kinase FLT3 (Homo sapiens), P36888 [UNDEFINED MUTATION]. As to the kind of experiment: Induction of FLT3-ITD degradation in human MV4-11 cells measured upto 18 hrs by Western blot analysis. Type of assay: cell-based. The conditions noted are these: time hrs <=18.
Assay [2] has as its target Mitogen-activated protein kinase kinase kinase 14 (Homo sapiens) (UniProt Q99558). As to the kind of experiment: Inhibition of NIK (unknown origin) at 1000 nM relative to control.
Assay [3] deals with MOLM-13. As to the kind of experiment: Induction of apoptosis in human MOLM-13 cells at 10 nM after 48 hrs by Annexin-V/PI staining based flow cytometry. Type of assay: functional, cell-based. In general terms: In flow cytometry, cells or beads pass a laser one at a time.
For assay [4], the target named is RAC-alpha serine/threonine-protein kinase (Homo sapiens) (UniProt P31749). Briefly: Inhibition of AKT1 (unknown origin) at 1000 nM relative to control.
RAC-alpha serine/threonine-protein kinase (Homo sapiens), sequence (P31749 whole entry): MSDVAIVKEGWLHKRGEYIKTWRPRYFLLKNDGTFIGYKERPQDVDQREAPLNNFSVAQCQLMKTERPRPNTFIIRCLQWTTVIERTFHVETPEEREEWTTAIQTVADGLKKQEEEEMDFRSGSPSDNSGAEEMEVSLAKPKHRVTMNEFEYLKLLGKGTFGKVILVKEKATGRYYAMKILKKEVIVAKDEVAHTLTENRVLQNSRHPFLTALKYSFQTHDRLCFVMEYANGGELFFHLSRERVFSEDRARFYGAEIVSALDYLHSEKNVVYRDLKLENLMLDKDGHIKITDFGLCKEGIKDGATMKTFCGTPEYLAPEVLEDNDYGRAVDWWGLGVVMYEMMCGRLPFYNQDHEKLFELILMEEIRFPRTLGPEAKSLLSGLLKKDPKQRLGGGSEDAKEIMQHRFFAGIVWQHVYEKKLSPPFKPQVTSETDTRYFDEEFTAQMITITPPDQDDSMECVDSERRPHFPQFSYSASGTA
Assay [5] addresses Receptor tyrosine-protein kinase erbB-2 (Homo sapiens) (UniProt P04626). As to the kind of experiment: Inhibition of HER2 (unknown origin) at 1000 nM relative to control.
The target of assay [6] is Serine/threonine-protein kinase 4 (Homo sapiens) (UniProt Q13043). Briefly: Inhibition of MST1 (unknown origin) at 1000 nM relative to control.
For assay [7], the target named is Serine/threonine-protein kinase Chk2 (Homo sapiens) (UniProt O96017). As to the kind of experiment: Inhibition of CHK2 (unknown origin) at 1000 nM relative to control.
Assay [8] has as its system MV4-11. Briefly: Antiproliferative activity against human MV4-11 cells incubated for 48 hrs by CCK-8 assay. Type of assay: functional, cell-based. The conditions noted are these: MV4-11, 48 h. In general terms: Tetrazolium dyes change colour on reduction, which living cells bring about.
In assay [9] the target is Glycogen synthase kinase-3 alpha (Homo sapiens) (UniProt P49840). As to the kind of experiment: Inhibition of GSK3alpha (unknown origin) at 1000 nM relative to control.
Glycogen synthase kinase-3 alpha (Homo sapiens), sequence (P49840 2-483 limits assumed): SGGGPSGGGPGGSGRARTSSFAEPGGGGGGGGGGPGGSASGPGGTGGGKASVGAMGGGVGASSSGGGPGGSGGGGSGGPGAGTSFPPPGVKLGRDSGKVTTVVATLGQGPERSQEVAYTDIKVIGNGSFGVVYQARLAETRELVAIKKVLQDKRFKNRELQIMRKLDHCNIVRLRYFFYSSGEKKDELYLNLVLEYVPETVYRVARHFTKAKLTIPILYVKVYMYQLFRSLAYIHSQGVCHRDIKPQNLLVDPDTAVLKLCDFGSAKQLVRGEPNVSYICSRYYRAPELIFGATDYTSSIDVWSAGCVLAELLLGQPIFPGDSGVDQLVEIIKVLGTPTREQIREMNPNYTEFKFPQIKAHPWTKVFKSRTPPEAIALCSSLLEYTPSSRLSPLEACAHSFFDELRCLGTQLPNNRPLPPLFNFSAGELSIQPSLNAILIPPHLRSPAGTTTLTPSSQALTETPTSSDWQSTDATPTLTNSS
The target of assay [10] is Mitogen-activated protein kinase 1 (Homo sapiens) (UniProt P28482). As to the kind of experiment: Inhibition of ERK2 (unknown origin) at 1000 nM relative to control.
Mitogen-activated protein kinase 1 (Homo sapiens), sequence (P28482 whole entry): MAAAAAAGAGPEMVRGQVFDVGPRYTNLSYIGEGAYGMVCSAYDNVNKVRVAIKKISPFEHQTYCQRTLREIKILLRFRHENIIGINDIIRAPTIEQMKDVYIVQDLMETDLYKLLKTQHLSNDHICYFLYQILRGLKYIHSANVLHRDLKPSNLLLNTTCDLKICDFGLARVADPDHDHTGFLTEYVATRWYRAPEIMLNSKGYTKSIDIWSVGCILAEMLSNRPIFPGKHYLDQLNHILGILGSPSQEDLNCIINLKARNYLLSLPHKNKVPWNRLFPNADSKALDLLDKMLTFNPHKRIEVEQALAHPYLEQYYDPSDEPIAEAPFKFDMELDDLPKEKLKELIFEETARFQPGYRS
Assay [11] has as its target Mitogen-activated protein kinase 8 (Homo sapiens) (UniProt P45983). Briefly: Inhibition of JNK1 (unknown origin) at 1000 nM relative to control.
For assay [12], the target named is Proto-oncogene tyrosine-protein kinase Src (Homo sapiens) (UniProt P12931). Briefly: Inhibition of SRC (unknown origin) at 1000 nM relative to control.
The target in assay [13] is Rho-associated protein kinase 1 (Homo sapiens) (UniProt Q13464). As to the kind of experiment: Inhibition of ROCK1 (unknown origin) at 1000 nM relative to control.
Assay [14] deals with Mitogen-activated protein kinase 1 (Homo sapiens) (UniProt P28482). As to the kind of experiment: Inhibition of MAPK2 (unknown origin) at 1000 nM relative to control.
The target of assay [15] is Maternal embryonic leucine zipper kinase (Homo sapiens) (UniProt Q14680). As to the kind of experiment: Inhibition of MELK (unknown origin) at 1000 nM relative to control.
Assay [16] deals with ALK tyrosine kinase receptor (Homo sapiens) (UniProt Q9UM73). As to the kind of experiment: Inhibition of ALK (unknown origin) at 1000 nM relative to control.
In assay [17] the target is Discoidin domain-containing receptor 2 (Homo sapiens) (UniProt Q16832). As to the kind of experiment: Inhibition of DDR2 (unknown origin) at 1000 nM relative to control.
Assay [18] concerns MV4-11. Briefly: Induction of apoptosis in human MV4-11 cells at 10 nM after 48 hrs by Annexin-V/PI staining based flow cytometry. Type of assay: functional, cell-based.
Assay [19] concerns the target Serine/threonine-protein kinase TBK1 (Homo sapiens) (UniProt Q9UHD2). As to the kind of experiment: Inhibition of TBK1 (unknown origin) at 1000 nM relative to control.
For assay [20], the target named is Mitogen-activated protein kinase kinase kinase kinase 1 (Homo sapiens) (UniProt Q92918). Briefly: Inhibition of HPK1 (unknown origin) at 1000 nM relative to control.
Assay [21] concerns MOLM-13. Briefly: Antiproliferative activity against human MOLM-13 cells incubated for 48 hrs by CCK-8 assay. Type of assay: functional, cell-based. As to conditions: MOLM-13, 48 h.
Assay [22] concerns the target CDK7/Cyclin H/MNAT1 (Homo sapiens) (UniProt P51946+P50613+P51948). As to the kind of experiment: Inhibition of CDK7/cyclinH/MAT1 (unknown origin) at 1000 nM relative to control. Type of assay: protein-complex assay.
Assay [23] deals with Serine/threonine-protein kinase MARK1 (Homo sapiens) (UniProt Q9P0L2). As to the kind of experiment: Inhibition of MARK1 (unknown origin) at 1000 nM relative to control.
In assay [24] the target is Mast/stem cell growth factor receptor Kit (Homo sapiens) (UniProt P10721). Briefly: Inhibition of KIT (unknown origin) at 1000 nM relative to control.
In assay [25] the target is Tyrosine-protein kinase JAK3 (Homo sapiens) (UniProt P52333). As to the kind of experiment: Inhibition of JAK3 (unknown origin) at 1000 nM relative to control.
Assay [26] concerns the target Hepatocyte growth factor receptor (Homo sapiens) (UniProt P08581). As to the kind of experiment: Inhibition of C-MET (unknown origin) at 1000 nM relative to control.
In assay [27] the target is Aurora kinase A (Homo sapiens) (UniProt O14965). Briefly: Inhibition of AURORA-A (unknown origin) at 1000 nM relative to control.
Aurora kinase A (Homo sapiens), sequence (O14965 whole entry, canonical isoform): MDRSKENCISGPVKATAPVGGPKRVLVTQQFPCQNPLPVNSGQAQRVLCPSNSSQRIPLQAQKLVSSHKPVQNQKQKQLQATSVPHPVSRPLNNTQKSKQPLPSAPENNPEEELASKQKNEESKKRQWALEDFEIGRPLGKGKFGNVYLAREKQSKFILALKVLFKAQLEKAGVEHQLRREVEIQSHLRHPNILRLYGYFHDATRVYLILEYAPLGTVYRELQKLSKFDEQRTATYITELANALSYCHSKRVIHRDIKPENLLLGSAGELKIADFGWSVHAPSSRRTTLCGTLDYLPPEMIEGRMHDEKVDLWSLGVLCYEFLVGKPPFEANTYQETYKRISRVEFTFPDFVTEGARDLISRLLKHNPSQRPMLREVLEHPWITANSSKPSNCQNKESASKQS
Assay [28] has as its target Casein kinase I isoform alpha-like (Homo sapiens) (UniProt Q8N752). As to the kind of experiment: Inhibition of CK1A1 (unknown origin) at 1000 nM relative to control.

Mitogen-activated protein kinase kinase kinase 14 (Homo sapiens), sequence (Q99558 whole entry, looked up): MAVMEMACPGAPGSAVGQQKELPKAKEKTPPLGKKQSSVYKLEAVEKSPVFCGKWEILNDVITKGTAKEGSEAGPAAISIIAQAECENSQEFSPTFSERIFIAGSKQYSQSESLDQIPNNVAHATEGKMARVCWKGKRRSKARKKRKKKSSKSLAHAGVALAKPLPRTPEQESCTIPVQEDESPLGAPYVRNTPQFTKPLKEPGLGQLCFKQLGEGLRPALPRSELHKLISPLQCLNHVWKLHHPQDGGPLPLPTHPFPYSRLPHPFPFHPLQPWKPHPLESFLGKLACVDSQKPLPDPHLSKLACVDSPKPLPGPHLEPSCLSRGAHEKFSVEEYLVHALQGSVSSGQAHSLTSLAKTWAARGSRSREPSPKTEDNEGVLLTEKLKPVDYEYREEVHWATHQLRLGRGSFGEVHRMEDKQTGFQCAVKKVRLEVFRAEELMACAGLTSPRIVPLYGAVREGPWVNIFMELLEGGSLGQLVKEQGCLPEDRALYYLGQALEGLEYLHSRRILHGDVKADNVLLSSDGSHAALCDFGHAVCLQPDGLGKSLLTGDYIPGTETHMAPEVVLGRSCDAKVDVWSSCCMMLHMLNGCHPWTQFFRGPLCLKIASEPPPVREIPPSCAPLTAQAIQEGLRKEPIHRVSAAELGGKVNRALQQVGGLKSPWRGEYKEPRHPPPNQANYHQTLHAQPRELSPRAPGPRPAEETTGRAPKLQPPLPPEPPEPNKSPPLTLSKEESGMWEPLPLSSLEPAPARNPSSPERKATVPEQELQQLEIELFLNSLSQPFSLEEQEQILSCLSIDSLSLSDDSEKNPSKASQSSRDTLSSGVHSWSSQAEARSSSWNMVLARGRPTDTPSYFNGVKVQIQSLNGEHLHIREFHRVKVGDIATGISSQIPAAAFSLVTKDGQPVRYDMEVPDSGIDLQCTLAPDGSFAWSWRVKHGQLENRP
Serine/threonine-protein kinase TBK1 (Homo sapiens), sequence (Q9UHD2 whole entry): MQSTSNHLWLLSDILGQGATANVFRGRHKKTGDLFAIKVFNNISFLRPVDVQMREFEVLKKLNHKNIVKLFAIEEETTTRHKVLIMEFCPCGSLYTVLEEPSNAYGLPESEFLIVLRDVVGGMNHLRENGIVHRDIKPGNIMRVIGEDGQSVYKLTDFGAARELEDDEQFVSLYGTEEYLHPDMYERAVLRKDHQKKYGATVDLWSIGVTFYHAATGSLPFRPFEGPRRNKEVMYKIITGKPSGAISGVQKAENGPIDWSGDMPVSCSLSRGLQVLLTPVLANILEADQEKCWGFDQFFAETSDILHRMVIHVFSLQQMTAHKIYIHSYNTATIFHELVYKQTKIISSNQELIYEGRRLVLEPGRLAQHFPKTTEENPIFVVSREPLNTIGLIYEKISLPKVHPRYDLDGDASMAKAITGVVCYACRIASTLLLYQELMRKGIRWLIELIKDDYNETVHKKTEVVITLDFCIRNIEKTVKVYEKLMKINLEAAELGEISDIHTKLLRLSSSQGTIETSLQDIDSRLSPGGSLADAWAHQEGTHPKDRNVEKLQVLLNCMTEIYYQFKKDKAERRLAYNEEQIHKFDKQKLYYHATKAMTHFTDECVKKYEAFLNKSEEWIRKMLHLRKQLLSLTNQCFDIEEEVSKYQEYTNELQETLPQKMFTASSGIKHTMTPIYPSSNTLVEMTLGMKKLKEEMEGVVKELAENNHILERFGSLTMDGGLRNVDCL
Receptor tyrosine-protein kinase erbB-2 (Homo sapiens), sequence (P04626 whole entry): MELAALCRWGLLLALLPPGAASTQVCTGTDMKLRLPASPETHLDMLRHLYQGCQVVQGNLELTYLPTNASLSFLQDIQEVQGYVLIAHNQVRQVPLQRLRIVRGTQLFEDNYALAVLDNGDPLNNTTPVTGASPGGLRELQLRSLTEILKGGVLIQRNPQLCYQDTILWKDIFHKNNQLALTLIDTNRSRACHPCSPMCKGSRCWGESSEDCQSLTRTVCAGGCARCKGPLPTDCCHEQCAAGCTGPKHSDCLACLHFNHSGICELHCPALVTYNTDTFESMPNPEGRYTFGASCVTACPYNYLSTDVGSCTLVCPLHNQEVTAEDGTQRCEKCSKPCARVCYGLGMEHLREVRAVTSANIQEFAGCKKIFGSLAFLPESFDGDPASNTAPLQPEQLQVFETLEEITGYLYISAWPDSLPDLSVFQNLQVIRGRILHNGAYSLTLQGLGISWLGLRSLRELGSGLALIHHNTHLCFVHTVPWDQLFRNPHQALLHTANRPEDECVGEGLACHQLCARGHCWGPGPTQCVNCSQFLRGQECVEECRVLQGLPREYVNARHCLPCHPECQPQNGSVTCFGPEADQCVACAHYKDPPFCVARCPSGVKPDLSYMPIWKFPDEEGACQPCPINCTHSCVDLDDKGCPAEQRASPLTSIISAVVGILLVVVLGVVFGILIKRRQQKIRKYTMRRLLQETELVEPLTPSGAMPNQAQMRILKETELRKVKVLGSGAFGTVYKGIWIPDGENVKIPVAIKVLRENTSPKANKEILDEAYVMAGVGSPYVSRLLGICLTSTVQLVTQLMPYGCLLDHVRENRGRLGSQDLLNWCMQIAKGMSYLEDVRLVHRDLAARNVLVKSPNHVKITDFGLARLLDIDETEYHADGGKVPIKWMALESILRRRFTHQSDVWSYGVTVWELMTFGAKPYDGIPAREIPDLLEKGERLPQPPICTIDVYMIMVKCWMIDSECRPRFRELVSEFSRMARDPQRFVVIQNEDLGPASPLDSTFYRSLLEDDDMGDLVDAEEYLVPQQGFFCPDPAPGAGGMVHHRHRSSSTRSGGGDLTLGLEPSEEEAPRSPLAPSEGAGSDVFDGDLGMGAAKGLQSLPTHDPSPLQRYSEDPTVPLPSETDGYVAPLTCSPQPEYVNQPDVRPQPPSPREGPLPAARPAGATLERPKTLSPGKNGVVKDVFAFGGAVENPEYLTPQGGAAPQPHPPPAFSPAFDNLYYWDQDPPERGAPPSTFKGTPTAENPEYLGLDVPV
Casein kinase I isoform alpha-like (Homo sapiens), sequence (Q8N752 whole entry, canonical isoform): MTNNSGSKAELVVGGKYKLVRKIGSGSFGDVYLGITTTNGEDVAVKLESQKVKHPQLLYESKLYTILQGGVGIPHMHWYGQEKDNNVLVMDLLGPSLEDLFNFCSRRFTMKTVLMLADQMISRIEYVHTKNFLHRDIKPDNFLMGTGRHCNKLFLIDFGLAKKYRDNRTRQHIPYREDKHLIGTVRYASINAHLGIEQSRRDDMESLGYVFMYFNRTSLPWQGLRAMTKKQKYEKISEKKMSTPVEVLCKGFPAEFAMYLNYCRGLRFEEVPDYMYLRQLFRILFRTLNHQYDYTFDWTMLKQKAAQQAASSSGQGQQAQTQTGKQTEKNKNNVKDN

Turning to `C[C@@H]1C[C@@H]([C@H](O)CC2CC(=O)NC(=O)C2)C(=O)[C@@H](C)C1`, the result in assay [1] was inactive.

A word on the inhibition: it is the relative decrease from the control value, in per cent. What is called IC50 is the midpoint of a concentration-inhibition curve. Low values mean greater potency in that assay, high ones weaker potency in that assay. `CN1CCN(c2ccc3nc(-c4c(N)c5c(F)cccc5[nH]c4=O)[nH]c3c2)CC1` [DOVITINIB]: the inhibition in assay [2] is 2%; in assay [4] it was 4%; in assay [5], 37%; in [6] it was 82%; in [7], 25%; in assay [9], 20%. Also, the inhibition was 31% in assay [10]; 33% in assay [11]; 79% in assay [12]; 23% in assay [13]; 54% in assay [14]; 70% in assay [15]. Besides, the inhibition in assay [16] came out at 55%; in assay [17] it was 38%; in assay [19] it was 64%; in assay [20], 94%; in assay [22], 85%; in assay [23] it was 57%. In addition, the inhibition in assay [24] came out at 98%; in [25], 54%; in [26] it was 14%; in [27] it was 38%; in assay [28], 10%. For the same compound, the outcome in the assay with MOLM-13 [3] and in the assay with MV4-11 [18] was inactive. Besides, the IC50 in the assay on MV4-11 [8] is 184 nM; with MOLM-13 [21], 795 nM.
